From patent US10463664B2, “Inhibitors of HSV nucleotidyl transferases and uses therefor” (Saint Louis University, priority 2013, dated 2019)
pEC50: −log10 of the molar value. Like-named read-outs stand apart in the source and are kept apart here.

Columns and labels:
[1] = system: HSV-2; experiment: Time-of-addition experiment, HSV-2 in Vero cells; assay type: cell-based, herpes simplex virus 2; conditions: 10 μM
Protocol: The inventors next varied the time post-infection that the inhibitors were added to begin defining the stage(s) of viral replication targeted by the inhibitors. […] The cells were incubated until 24 hours post-infection and then infectious viral titers were determined by plaque assay and viral DNA production was determined by quantitative PCR (FIG. 5).

[2] = in vitro; conditions: human
Protocol: (§1) Toxicity Assays. Qualitative assessments of cytotoxicity were done visually by inspecting the cells in the primary screening assays. For the quantitative assays, cells were plated in 96-well plates at 1.0×10^4 per well. The next day the compounds were added at 0.78 to 100 μM in a final concentration of 1% (v/v) DMSO, and the cells were incubated for 24 hours under conditions identical to those employed for the viral replication inhibition assays. Mitochondrial toxicity was measured by incubating the cells with 0.25 mg/mL thiazolyl blue tetrazolium bromide (MTT, SigmaAldrich Chemical Co.), the cultures were incubated for 60 min, metabolites were solubilized in acidic isopropanol, and absorbance was read at 570 nm. Cellular lysis was measured by detecting release of intracellular proteases with the CytoTox-Glo assay (Promega) according to the manufacturer's instructions. Percent viability was determined for each compound concentration from the maximal absorbance or luminosity data, and then CC50 values were calculated by non-linear curve fitting using GraphPad Prism.
(§2) Inhibition of viral replication was next assessed in human foreskin fibroblasts (HFF) to determine whether NTS inhibitors could block HSV-1 and HSV-2 replication in a physiologically relevant, primary human cell type. […] Viral yields 24 hours post-infection were measured by plaque assay.

[3] = CytoTox-Glo cellular lysis assay in Vero cells; assay type: cell-based; conditions: African green monkey, Vero cells, read-out: Vero cell toxicity CTG CC50
Protocol: Quantitative toxicity measurements were conducted for all compounds that suppressed HSV replication by approximately 2 login or more at 5 μM plus a number of compounds with lesser inhibitory activity for comparison. Toxicity was assessed by measuring release of intracellular proteases into the culture medium due to cellular lysis. […] Consistent with the subjective assessments of toxicity, all compounds selected for quantitative toxicity assessment had CC50 values ≥50 μM by both the MTT and cellular lysis assays (Table 1).

[4] = MTT mitochondrial toxicity assay in Vero cells; assay type: cell-based; conditions: African green monkey, Vero cells, read-out: Vero cell toxicity MTT CC50
[5] = system: primary human foreskin fibroblasts; experiment: in vitro
Protocol: as §1, §2

[6] = Neutral red cytotoxicity assay in uninfected HFFs (14 day, with CPE assay); assay type: cell-based, human; conditions: human, uninfected human foreskin fibroblasts (HFFs)
Protocol: Anti-HCMV CPE inhibition and cytotoxicity assays. HFFs were infected with HCMV strain AD169 in the presence of serial dilutions of the compounds from 0.0192 to 60 μM. Fourteen days later the monolayers were stained with crystal violet, and retained cell density was quantified using a multiplate autoreader (BioTek). Cytotoxicity was measured the same way, except that the cells were uninfected and neutral red internalization by viable cells was measured.
Antiviral efficacy against HCMV. The ability of select HSV inhibitors to inhibit replication of another major human herpesvirus pathogen, human cytomegalovirus (HCMV) (65) was tested. This was based on the inhibitors strong suppression of HSV-1 and HSV-2 and the prediction that other members of the herpesvirus family would be sensitive to NTS inhibitors due to their shared DNA replication mechanism. Compounds #41, 46, 49, 55, 56, and 59 and the FDA-approved anti-HCMV drug ganciclovir were evaluated with crystal violet CPE and neutral red toxicity assays in HFFs. HFFs were infected with HCMV in the presence of serial dilutions of the compounds that were most inhibitory for HSVs. After 14 days the monolayers were stained and cell density was determined by OD reading. Compound cytotoxicity for uninfected cells was determined in the same manner except that neutral red uptake by viable cells was measured. […] The TI values for the four NTS inhibitors of HCMV ranged from 4 for compound #41 to 38 for #56. Therefore, NTS inhibitors can suppress HCMV replication in addition to inhibiting the HSVs.

[7] = system: HCMV strain AD169; experiment: HCMV plaque reduction assay in HFFs; assay type: cell-based, human cytomegalovirus; conditions: 10 days, read-out: EC50 against HCMV, plaque reduction assay
Protocol: (§3) HCMV plaque reduction EC50 and toxicity assays. Low passage primary HFFs were infected with HCMV strain AD169 in the presence of serial dilutions of the compounds from 0.032 to 100 μM. Ten days later the monolayers were stained with 1% neutral red solution in PBS. After rinsing, plaques were counted using a stereomicroscope and the EC50 was interpolated from the data. Cytotoxicity was measured using a plate-based assay in which compounds were added to HFFs at 0.032 to 100 μM. At the end of the incubation period, plates were stained for 1 h with a neutral red solution in PBS. The stain was then removed, the plates rinsed in PBS and dried, and dye internalized by viable cells was determined at OD550. CC50 values were interpolated from the data.
(§4) Compounds #41, 46, 49, 55, 56, and 59 and the FDA-approved, anti-HCMV drug ganciclovir were subsequently evaluated with plaque reduction and toxicity assays in HFFs. HFFs were infected with HCMV in the presence of serial dilutions of the compounds. After 10 days the cultures were stained with neutral red and plaques were counted. Compound cytotoxicity for uninfected cells was determined in the same manner except that neutral red uptake by viable cells was measured by optical density. […] The TI values for the five NTS inhibitors of HCMV ranged from 5 for compound #46 to 17 for #55 and 59. Therefore, NTS inhibitors can suppress HCMV replication in addition to inhibiting the HSVs.

[8] = Neutral red cytotoxicity assay in HFFs (10 day, with plaque reduction assay); assay type: cell-based, human; conditions: human, uninfected primary human foreskin fibroblasts (HFFs), 10 day assay
Protocol: as §3, §4

[9] = system: HSV-1 strain KOS; experiment: Resistance evolution by passage of HSV-1 KOS in presence of inhibitor; assay type: cell-based, herpes simplex virus 1; conditions: compared with unselected KOS
Protocol: Cultures were scraped and collected when virus-induced cytopathic effect was evident (24-72 h). […] This process was repeated three times, maintaining the independent lineages. […] Inhibition was determined by subtracting a lineage's titer in the presence of inhibitor from its titer in the presence of diluent control.

[10] = system: HFFs; experiment: Neutral red cytotoxicity assay in HFFs (10 day, with plaque reduction assay); assay type: cell-based, human; conditions: 10 day assay
Protocol: as §3, §4

[11] = system: HSV-1; experiment: Pre-incubation of viral inoculum with compound (virus infectivity); assay type: cell-based, herpes simplex virus 1
Protocol: Tests were carried out to determine if the early event inhibited by compound #46 was a pre- or post-entry event. A high titer HSV-1 stock was pre-incubated with compound #46 at 50 μM or was incubated with an equivalent amount of DMSO-containing medium for 1 hour at 37° C. Then the viral stocks with compound or DMSO were diluted such that Vero cells were infected at a moi of 0.1 as usual. […] A standard inhibition assay using compound #46 at 50 μM was conducted in parallel as a positive control, and viral titers were determined by plaque assay at 24 hours post-infection. The standard conditions of infection at 50 μM caused a 5.5 log10 suppression of HSV-1 replication relative to the DMSO pre-treatment sample.

## Nc1nc2c(ncn2COCCO)c(=O)[nH]1 [ACV, Acyclovir, reference compound]
[1]
  Delay of addition with no effect on inhibition of DNA replication or viral accumulation: ≤ 5 hours post-infection
  Time of addition at which compound becomes essentially ineffective: 12 hours post-infection
[2]
  CC50 at 24 h: > 100 µM
[3]
  CC50 at 24 h: > 100 µM
[4]
  CC50 at 24 h: > 100 µM

## CCOc1ccc(-c2c3cc(O)c(=O)cc-3oc3cc(O)c(O)cc23)cc1 [Compound 30]
[5]
  CC50: > 100 µM

## Cc1cc(C2CCCCC2)n(O)c(=O)c1 [Compound 41, Ciclopirox, reference compound]
[6]
  CC50 at 14 days: 8.9 µM
[7]; Human betaherpesvirus 5, AD169, 240 h
  pEC50: 6.48
[8]
  CC50 at 10 days: 2.9 µM
[2]
  CC50 at 24 h: > 100 µM
[9]
  Sensitivity of inhibitor-selected lineages after 3 rounds of growth (in words): remained as sensitive
[3]
  CC50 at 24 h: > 100 µM
[4]
  CC50 at 24 h: > 50 µM

## CC(C)c1ccc(O)c(=O)c(O)c1 [Compound 46, Beta-thujaplicinol]
[7]
  pEC50: 5.89
[10]
  CC50: 6.7 µM
[11]; 50 μM throughout, relative to DMSO pre-treatment sample
  Suppression of HSV-1 replication, standard conditions of infection: 5.5 log10
[11]; pre-incubation 50 μM, 1 hour, 37° C.
  Effect of pre-incubation on virions / virus entry (in words): not directly toxic to virions
[5]
  CC50: > 100 µM
[9]
  Sensitivity of inhibitor-selected lineages after 3 rounds of growth (in words): remained as sensitive

## CC(C)=CCc1ccc(O)c(=O)cc1C(C)C [Compound 49, Nootkatin]
[7]
  pEC50: 6.35
[10]
  CC50: 6.7 µM
[5]
  CC50: > 100 µM

## CC(=O)NC(CCc1ccc(Cl)c(Cl)c1)c1cccc(O)c(=O)c1 (stereo not shown) [Compound 55]
[7]
  pEC50: 6.33
[10]
  CC50: 8 µM
[5]
  CC50: > 100 µM

## C=C(C)C1CCc2c(c(C)cc(O)c(=O)c2O)C1 (stereo not shown) [Compound 56, Manicol]
[7]
  pEC50: 5.58
[10]
  CC50: 6.7 µM
[5]
  CC50: > 100 µM
